Experimental data from patent US20260317332A1, “BICYCLIC HETEROCYCLE COMPOUNDS FOR THE TREATMENT OF CANCER” (Hoffmann-La Roche Inc., priority 2023, published 2026).

Legend:
CD73 [1] = target: T1, CD73 (Homo sapiens, UniProt P21589); experiment: Human CD73 Biochemical Assay; details: 0.05 nM recombinant CD73; AMP 5.56 μM final; 10 min at room temperature; LC/MS adenosine readout; read-out: Enzymatic IC50 against human CD73
T1 sequence (P21589 27-574): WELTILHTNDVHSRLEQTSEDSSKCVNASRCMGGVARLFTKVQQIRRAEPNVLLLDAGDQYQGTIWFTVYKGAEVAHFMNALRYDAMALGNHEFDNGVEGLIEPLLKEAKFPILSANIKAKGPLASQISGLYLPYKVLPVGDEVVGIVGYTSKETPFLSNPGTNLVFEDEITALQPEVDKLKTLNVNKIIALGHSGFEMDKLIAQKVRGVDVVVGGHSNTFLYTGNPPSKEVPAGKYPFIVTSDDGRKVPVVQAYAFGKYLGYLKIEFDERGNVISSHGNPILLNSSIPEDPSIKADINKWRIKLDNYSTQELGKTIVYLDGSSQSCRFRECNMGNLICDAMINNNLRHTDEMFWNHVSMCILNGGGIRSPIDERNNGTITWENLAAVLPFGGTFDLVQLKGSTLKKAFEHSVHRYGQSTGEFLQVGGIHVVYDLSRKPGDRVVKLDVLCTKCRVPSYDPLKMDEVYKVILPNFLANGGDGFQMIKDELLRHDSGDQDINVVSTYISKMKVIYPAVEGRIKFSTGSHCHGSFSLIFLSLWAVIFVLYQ
Protocol: The purpose of this assay is to identify and characterize inhibitors of human CD73 enzymatic activity. Compound serial dilution (1:3) was prepared with Echo 555 liquid handler (Labcyte) into the corresponding wells of a 384-well plate. 10 μL of enzyme working solution (containing 0.05 nM recombinant CD73 protein, 10 mM Tris pH 7.5, 100 mM NaCl, 0.01% BSA, 0.2 mM Octyl glucoside and 1 mM NaH2PO4) was added to the assay plate and incubated with compounds for 15 minutes at room temperature. After adding 15 μL of AMP working solution (Containing 10 mM Tris pH 7.5, 100 mM NaCl, 0.01% BSA, 0.2 mM Octyl glucoside, with 5.56 μM of AMP final concentration) and incubate for 10 min at room temperature. Stop the reaction by adding 75 μL of stop solution (5% TCA in H2O containing 250 nM 13C5-adenosine) to each well for 10 min incubation. After centrifugation, 75 μL of the mixture was transferred to a new 384-well plate for LC/MS analysis.
Samples from the 384-well plates, were loaded onto an autosampler deck, then injected with ADDA-LC-MS/MS. The aqueous mobile phase is 0.1% formic acid in water. The organic mobile phase is 0.1% formic acid in acetonitrile. Flow rate is maintained at 0.8 mL/minute using Shimadzu pumps. The column is ACE 5 Phenyl, 50×2.1 mm. The analysis was performed on a SCIEX triple quadrupole mass spectrometer operating in positive ion mode. The effluent from the HPLC column was directly introduced into the electrospray ionization (ESI). Multiple reaction monitoring (MRM) is used to determine analyte and internal standard (IS) responses. The MRM for adenosine is 268.1/136.1, for 13C5-Adenosine (IS) is 273.2/136.2. The data is calculated using the peak area ratio (PAR) semi-quantitative method.

CD73 [2] = target: T1, CD73; experiment: CD73 Cellular Assay; format: cell-based; design: 40 μL of MDA-MB-231 cells (ATCC, HTB-26, breast cancer); host or cells: MDA-MB-231; details: MDA-MB-231 cells; 200 μM AMP working solution; 45 min at 37° C.; malachite readout; read-out: Cellular IC50 against CD73
Protocol: Compound serial dilution (1:3) was prepared with Echo 555 liquid handler (Labcyte) into the corresponding wells of a 384-well plate. 40 μL of MDA-MB-231 cells (ATCC, HTB-26, breast cancer, final concentration at 20,000 cells/mL) suspended in assay buffer (20 mM HEPES pH 7.4, 137 mM NaCl, 5.4 mM KCl, 1.3 mM CaCl2, 4.2 mM NaHCO3, 1 mg/mL glucose) were added into the corresponding wells of the plate. After incubating with compounds for 30 minutes, 40 μL of AMP working solution (200 μM AMP in assay buffer) was added into each well in the assay plate. The assay plate was then incubated in a 5% CO2 incubator (Thermo Fisher Scientific) at 37° C. for 45 min. After the reaction was completed, 50 μL of the supernatants was collected and transferred into a new 384 well plate. 10 μL of Malachite A was added to each well in the assay plate and incubated for 10 minutes. 10 μL of Malachite B was then added to each corresponding well of the plate and incubated for 30 minutes. Finally the absorbance value was read on the Envision plate reader at […]. Calculation percentage inhibition by using equation {% inhibition=100×[1−(X−MIN)/(MAX−MIN)]} where X equals to the well signal, Max equals signal of neutral control and MIN equals signal of inhibitor control.

IC50 (CD73 [1]) | IC50 (CD73 [2]) | Compound
0.09 nM | 1.04 nM | C[C@H](Oc1nn(C)c2nnc(-c3c[nH]c(=O)[nH]c3=O)cc12)c1cc(OCC(F)(F)F)ncn1 (single isomer, unassigned) [Example 14A]
0.08 nM | 0.62 nM | Cn1nc(O[C@H](c2cc(COC(F)(F)F)ccn2)C(F)F)c2cc(-c3c[nH]c(=O)[nH]c3=O)nnc21 (single isomer, unassigned) [Example 36A]
0.13 nM | 0.87 nM | C[C@H](OC1CC1)c1cc([C@@H](Oc2nn(C)c3nnc(-c4c[nH]c(=O)[nH]c4=O)cc23)C(F)F)ccn1 (single isomer, unassigned) [Example 37A]
0.09 nM | 0.84 nM | C[C@@H](OC1CC1)c1cc([C@@H](Oc2nn(C)c3nnc(-c4c[nH]c(=O)[nH]c4=O)cc23)C(F)F)ccn1 (single isomer, unassigned) [Example 37B]
 | 0.65 nM | [2H]C([2H])([2H])C([2H])([2H])Oc1cc([C@@H](Oc2nn(C)c3nnc(-c4c[nH]c(=O)[nH]c4=O)cc23)C(F)F)ncn1 [Example 39A, 5-[3-[(1R)-2,2-difluoro-1-[6-(1,1,2,2,2-pentadeuterioethoxy)pyrimidin-4-yl]ethoxy]-1-methyl-pyrazolo[3,4-c]pyridazin-5-yl]-1H-pyrimidine-2,4-dione]

Continued, compound first:

Compound | IC50 (CD73 [1]) | IC50 (CD73 [2])
Cn1nc(O[C@H](c2cncc(OCC(F)(F)F)c2)C(F)F)c2cc(-c3c[nH]c(=O)[nH]c3=O)nnc21 (single isomer, unassigned) [Example 8A] | 0.07 nM | 0.66 nM
C[C@H]1COC[C@@H]1Oc1cc([C@@H](Oc2nn(C)c3nnc(-c4c[nH]c(=O)[nH]c4=O)cc23)C(F)F)ccn1 (stereo in doubt) [Example 40, 5-[1-methyl-3-[(1R)-2,2-difluoro-1-[2-[(trans)-4-methyltetrahydrofuran-3-yl]oxy-4-pyridyl]ethoxy]pyrazolo[3,4-c]pyridazin-5-yl]-1H-pyrimidine-2,4-dione] | 0.05 nM | 0.57 nM
Cn1nc(O[C@H](c2cccc(OCC(F)(F)F)c2)C(F)F)c2cc(-c3c[nH]c(=O)[nH]c3=O)nnc21 [Example 1, 5-[3-[(1R)-2,2-difluoro-1-[3-(2,2,2-trifluoroethoxy)phenyl]ethoxy]-1-methyl-pyrazolo[3,4-c]pyridazin-5-yl]-1H-pyrimidine-2,4-dione] | 0.08 nM | 0.7 nM
Cn1nc(O[C@H](c2ccc(F)c(OCC(F)(F)F)c2)C(F)F)c2cc(-c3c[nH]c(=O)[nH]c3=O)nnc21 [Example 3, 5-[3-[(1R)-2,2-difluoro-1-[4-fluoro-3-(2,2,2-trifluoroethoxy)phenyl]ethoxy]-1-methyl-pyrazolo[3,4-c]pyridazin-5-yl]-1H-pyrimidine-2,4-dione] | 0.17 nM | 0.91 nM
[2H]C([2H])(Oc1ccnc([C@@H](Oc2nn(C)c3nnc(-c4c[nH]c(=O)[nH]c4=O)cc23)C(F)F)c1)C(F)(F)F [Example 5, 5-[3-[(1R)-1-[4-(1,1-dideuterio-2,2,2-trifluoro-ethoxy)-2-pyridyl]-2,2-difluoro-ethoxy]-1-methyl-pyrazolo[3,4-c]pyridazin-5-yl]-1H-pyrimidine-2,4-dione] |  | 0.52 nM
[2H]C([2H])([2H])n1nc(O[C@H](c2cc(OCC(F)(F)F)ccn2)C(F)F)c2cc(-c3c[nH]c(=O)[nH]c3=O)nnc21 [Example 6, 5-[3-[(1R)-2,2-difluoro-1-[4-(2,2,2-trifluoroethoxy)-2-pyridyl]ethoxy]-1-(trideuteriomethyl)pyrazolo[3,4-c]pyridazin-5-yl]-1H-pyrimidine-2,4-dione] |  | 0.43 nM
CC(Oc1ccnc([C@@H](Oc2nn(C)c3nnc(-c4c[nH]c(=O)[nH]c4=O)cc23)C(F)F)c1)C(F)(F)F (stereo partly drawn) [Example 17, 5-[1-methyl-3-[(1R)-2,2-difluoro-1-[4-(2,2,2-trifluoro-1-methyl-ethoxy)-2-pyridyl]ethoxy]pyrazolo[3,4-c]pyridazin-5-yl]-1H-pyrimidine-2,4-dione] |  | 0.39 nM
Cn1nc(O[C@H](c2cc(OCC3CC3(F)F)ccn2)C(F)F)c2cc(-c3c[nH]c(=O)[nH]c3=O)nnc21 (stereo partly drawn) [Example 18, 5-[1-methyl-3-[(1R)-1-[4-[(2,2-difluorocyclopropyl)methoxy]-2-pyridyl]-2,2-difluoro-ethoxy]pyrazolo[3,4-c]pyridazin-5-yl]-1H-pyrimidine-2,4-dione] |  | 0.54 nM
Cn1nc(O[C@H](c2cc(OCC3(F)CC3)ccn2)C(F)F)c2cc(-c3c[nH]c(=O)[nH]c3=O)nnc21 [Example 19, 5-[3-[(1R)-2,2-difluoro-1-[4-[(1-fluorocyclopropyl)methoxy]-2-pyridyl]ethoxy]-1-methyl-pyrazolo[3,4-c]pyridazin-5-yl]-1H-pyrimidine-2,4-dione] |  | 0.59 nM
Cn1nc(O[C@H](c2cc(OCC3(C#N)CC3)ccn2)C(F)F)c2cc(-c3c[nH]c(=O)[nH]c3=O)nnc21 [Example 22, 1-[[2-[(1R)-1-[5-(2,4-dioxo-1H-pyrimidin-5-yl)-1-methyl-pyrazolo[3,4-c]pyridazin-3-yl]oxy-2,2-difluoro-ethyl]-4-pyridyl]oxymethyl]cyclopropanecarbonitrile] |  | 0.43 nM
Cn1nc(O[C@H](c2ccc3c(c2)N(CC(F)(F)F)CCO3)C(F)F)c2cc(-c3c[nH]c(=O)[nH]c3=O)nnc21 [Example 25, 5-[3-[(1R)-2,2-difluoro-1-[4-(2,2,2-trifluoroethyl)-2,3-dihydro-1,4-benzoxazin-6-yl]ethoxy]-1-methyl-pyrazolo[3,4-c]pyridazin-5-yl]-1H-pyrimidine-2,4-dione] |  | 1.29 nM
CCOc1cc([C@@H](Oc2nn(C)c3nnc(-c4c[nH]c(=O)[nH]c4=O)cc23)C(F)F)ccn1 [Example 29, 5-[3-[(1R)-1-(2-ethoxy-4-pyridyl)-2,2-difluoro-ethoxy]-1-methyl-pyrazolo[3,4-c]pyridazin-5-yl]-1H-pyrimidine-2,4-dione] |  | 0.51 nM
Cn1nc(O[C@H](c2ccnc(CN3CCC(F)(F)C3)c2)C(F)F)c2cc(-c3c[nH]c(=O)[nH]c3=O)nnc21 [Example 33, 5-[3-[(1R)-1-[2-[(3,3-difluoropyrrolidin-1-yl)methyl]-4-pyridyl]-2,2-difluoro-ethoxy]-1-methyl-pyrazolo[3,4-c]pyridazin-5-yl]-1H-pyrimidine-2,4-dione] |  | 0.63 nM
COC1(COc2cc([C@@H](Oc3nn(C)c4nnc(-c5c[nH]c(=O)[nH]c5=O)cc34)C(F)F)ccn2)CC1 [Example 41, 5-[3-[(1R)-2,2-difluoro-1-[2-[(1-methoxycyclopropyl)methoxy]-4-pyridyl]ethoxy]-1-methyl-pyrazolo[3,4-c]pyridazin-5-yl]-1H-pyrimidine-2,4-dione] |  | 0.73 nM
